Results taken from patent US10654860B2, “Tricyclic rho kinase inhibitors” (BRISTOL-MYERS SQUIBB COMPANY, priority 2016, dated 2020).

These molecules were tested against ROCK2 (Homo sapiens (Human), UniProt O75116) (assay: ROCK2 kinase inhibition assay (LABCHIP peptide phosphorylation)). Conditions: 5 μM ATP, 1.5 μM peptide substrate.
Type: biochemical
Procedure: The effectiveness of compounds of the present invention as ROCK inhibitors can be determined in a 30 μL, assay containing 20 mM HEPES, pH 7.5, 20 mM MgCl2, 0.015% Brij-35, 4 mM DTT, 5 μM ATP and 1.5 μM peptide substrate (FITC-AHA-AKRRRLSSLRA-OH). Compounds were dissolved in DMSO so that the final concentration of DMSO was <2%, and the reaction was initiated with Rho kinase variants. After incubation, the reaction was terminated by the addition of EDTA and the phosphorylated and non-phosphorylated peptides separated using a LABCHIP® 3000 Reader (Caliper Life Sciences). […] Compounds were tested in dose-response format, and the inhibition of kinase activity was calculated at each concentration of compound. The inhibition data were fit using a curve-fitting program to determine the IC50; i.e., the concentration of compound required to inhibit 50% of kinase activity.
Representative Examples were tested in the ROCK2 assay described above and found having ROCK2 inhibitory activity. The ranges of the ROCK2 IC50 values are as follows: ROCK2 IC50: ++++(<10 nM)+++(10-100 nM)++(100-500 nM)+(500-2000 nM)

Chain of ROCK2 (O75116 whole entry, species assumed): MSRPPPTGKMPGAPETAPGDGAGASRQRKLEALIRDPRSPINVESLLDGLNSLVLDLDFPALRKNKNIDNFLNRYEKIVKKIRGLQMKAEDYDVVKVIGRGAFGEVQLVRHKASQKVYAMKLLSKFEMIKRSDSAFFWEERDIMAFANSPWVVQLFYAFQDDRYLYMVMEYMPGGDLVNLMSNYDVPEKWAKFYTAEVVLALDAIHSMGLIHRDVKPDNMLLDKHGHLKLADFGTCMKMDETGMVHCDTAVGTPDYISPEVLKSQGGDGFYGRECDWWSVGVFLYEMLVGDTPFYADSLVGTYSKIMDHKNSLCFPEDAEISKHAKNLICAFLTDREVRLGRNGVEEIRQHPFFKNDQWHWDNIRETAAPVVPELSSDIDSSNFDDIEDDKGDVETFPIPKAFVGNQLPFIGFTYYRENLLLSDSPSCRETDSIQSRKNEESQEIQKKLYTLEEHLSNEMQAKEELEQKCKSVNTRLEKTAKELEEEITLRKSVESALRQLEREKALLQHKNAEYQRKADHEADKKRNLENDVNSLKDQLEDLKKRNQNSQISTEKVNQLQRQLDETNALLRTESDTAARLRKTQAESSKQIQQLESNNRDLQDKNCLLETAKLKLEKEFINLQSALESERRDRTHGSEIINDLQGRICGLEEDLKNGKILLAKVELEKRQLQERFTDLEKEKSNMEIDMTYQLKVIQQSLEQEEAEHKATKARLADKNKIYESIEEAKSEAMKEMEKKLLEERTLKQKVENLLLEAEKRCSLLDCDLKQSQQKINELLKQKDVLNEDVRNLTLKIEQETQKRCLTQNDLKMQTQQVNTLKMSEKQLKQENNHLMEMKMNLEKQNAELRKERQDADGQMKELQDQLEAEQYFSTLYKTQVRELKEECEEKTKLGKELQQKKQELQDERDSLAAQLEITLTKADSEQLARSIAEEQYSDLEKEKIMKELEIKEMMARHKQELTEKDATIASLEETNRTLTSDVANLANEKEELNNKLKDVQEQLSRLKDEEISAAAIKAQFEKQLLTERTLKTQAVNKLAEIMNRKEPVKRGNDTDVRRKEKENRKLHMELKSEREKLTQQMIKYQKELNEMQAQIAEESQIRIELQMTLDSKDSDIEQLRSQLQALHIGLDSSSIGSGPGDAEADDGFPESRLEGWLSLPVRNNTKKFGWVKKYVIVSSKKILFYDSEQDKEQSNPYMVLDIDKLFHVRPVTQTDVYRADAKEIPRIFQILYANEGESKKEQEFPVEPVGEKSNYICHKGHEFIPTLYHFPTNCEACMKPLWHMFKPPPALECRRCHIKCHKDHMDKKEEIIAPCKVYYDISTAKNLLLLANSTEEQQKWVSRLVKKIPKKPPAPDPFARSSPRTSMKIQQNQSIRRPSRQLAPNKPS

Q: For O=C1N(c2ccc3c(c2)CCc2n[nH]cc2-3)CCC12Cc1ccccc1N2 (racemic) [Example 1, (rac)-1′-(4,5-dihydro-2H-benzo[e]indazol-7-yl)spiro[indoline-2,3′-pyrrolidin]-2′-one], which IC50 is on record?
A: < 0.01 µM

Q: Which IC50 does the source give for COc1cccc(NC2CCN(c3ccc4c(n3)OCc3n[nH]cc3-4)C2=O)c1 (racemic) [Example 11, 1-(2,4-dihydropyrazolo[4′,3′:4,5]pyrano[2,3-b]pyridin-7-yl)-3-((3-methoxyphenyl)amino)pyrrolidin-2-one] here?
A: 0.01 to 0.1 µM

Q: Which IC50 does the source give for COc1cc(F)cc(NC2CCN(c3ccc4c(n3)OCc3n[nH]cc3-4)C2=O)c1 (racemic) [Example 12, 1-(2,4-dihydropyrazolo[4′,3′:4,5]pyrano[2,3-b]pyridin-7-yl)-3-((3-fluoro-5-methoxyphenyl)amino)pyrrolidin-2-one] here?
A: 0.01 to 0.1 µM

Q: How did the IC50 turn out when COc1cccc(NC2CCN(c3ccc4c(c3)OCc3n[nH]cc3-4)C2=O)c1 (racemic) [Example 13, 1-(2,4-dihydrochromeno[3,4-c]pyrazol-7-yl)-3-((3-methoxyphenyl)amino)pyrrolidin-2-one] was run?
A: < 0.01 µM

Q: With O=C1C(Nc2ccc3ncsc3c2)CCN1c1ccc2c(n1)OCc1n[nH]cc1-2 (racemic) [Example 32, 3-(benzo[d]thiazol-6-ylamino)-1-(2,4-dihydropyrazolo[4′,3′:4,5]pyrano[2,3-b]pyridin-7-yl)pyrrolidin-2-one] as the molecule, how does the IC50 read?
A: 0.5 to 2 µM

Q: For N#Cc1cccc(NC2CCN(c3ccc4c(n3)OCc3n[nH]cc3-4)C2=O)c1 (racemic) [Example 34, 3-((1-(2,4-dihydropyrazolo[4′,3′:4,5]pyrano[2,3-b]pyridin-7-yl)-2-oxopyrrolidin-3-yl)amino)benzonitrile], which IC50 is on record?
A: 0.5 to 2 µM

Q: With O=C1C(Nc2cccc(-c3cnco3)c2)CCN1c1ccc2c(n1)OCc1n[nH]cc1-2 (racemic) [Example 35, 1-(2,4-dihydropyrazolo[4′,3′:4,5]pyrano[2,3-b]pyridin-7-yl)-3-((3-(oxazol-5-yl)phenyl)amino)pyrrolidin-2-one] as the molecule, how does the IC50 read?
A: 0.5 to 2 µM

Q: Which IC50 does the source give for O=C1N(c2ccc3c(c2)CCc2n[nH]cc2-3)CCC12Cc1ccccc1N2 (single isomer, unassigned) [Example 6, 1′-(4,5-dihydro-2H-benzo[e]indazol-7-yl)spiro[indoline-2,3′-pyrrolidin]-2′-one] here?
A: < 0.01 µM

Q: COc1cccc(NC2CCN(c3ccc4c(c3)OCc3n[nH]cc3-4)C2=O)c1 (single isomer, unassigned) [Example 10, 1-(2,4-dihydrochromeno[3,4-c]pyrazol-7-yl)-3-((3-methoxyphenyl)amino)pyrrolidin-2-one] was tested. Which IC50 did it give?
A: < 0.01 µM

Q: Which IC50 does the source give for O=C1N(c2ccc3c(c2)CCc2n[nH]cc2-3)CCC12Cc1ccccc1N2 (single isomer, unassigned) [Example 16, 1′-(4,5-dihydro-2H-benzo[e]indazol-7-yl)spiro[indoline-2,3′-pyrrolidin]-2′-one] here?
A: 0.01 to 0.1 µM

Q: For COc1cccc(NC2CCN(c3ccc4c(c3)OCc3n[nH]cc3-4)C2=O)c1 (single isomer, unassigned) [Example 17, 1-(2,4-dihydrochromeno[3,4-c]pyrazol-7-yl)-3-((3-methoxyphenyl)amino)pyrrolidin-2-one], which IC50 is on record?
A: 0.01 to 0.1 µM

Q: For COc1cccc(CN2CCN(c3ccc4c(c3)CCc3n[nH]cc3-4)C2=O)c1 [Example 2, 1-(4,5-dihydro-2H-benzo[e]indazol-7-yl)-3-(3-methoxybenzyl)imidazolidin-2-one], which IC50 is on record?
A: < 0.01 µM

Q: For COc1cccc(N[C@H]2CCN(c3ccc4c(c3)CCc3n[nH]cc3-4)C2=O)c1 [Example 3, (S)-1-(4,5-dihydro-21-benzo[e]indazol-7-yl)-3-((3-methoxyphenyl)amino)pyrolidin-2-one], which IC50 is on record?
A: < 0.01 µM

Q: COc1cccc(CNC(=O)Nc2ccc3c(n2)OCc2n[nH]cc2-3)c1 [Example 5, 1-(2,4-dihydropyrazolo[4′,3′:4,5]pyrano[2,3-b]pyridin-7-yl)-3-(3-methoxybenzyl)urea] was tested. Which IC50 did it give?
A: 0.01 to 0.1 µM

Q: COc1cccc([C@@H](C)N2CCN(c3ccc4c(c3)CCc3n[nH]cc3-4)C2=O)c1 [Example 7, (R)-1-(4,5-dihydro-2H-benzo[e]indazol-7-yl)-3-(1-(3-methoxyphenyl)ethyl)imidazolidin-2-one] was tested. Which IC50 did it give?
A: < 0.01 µM

Q: Which IC50 does the source give for COc1cccc(CN2CCN(c3ccc4c(n3)CCc3n[nH]cc3-4)C2=O)c1 [Example 8, 1-(4,5-dihydro-2H-pyrazolo[4,3-f]quinolin-7-yl)-3-(3-methoxybenzyl)imidazolidin-2-one] here?
A: < 0.01 µM

Q: How did the IC50 turn out when COc1cccc(N[C@@H]2CCN(c3ccc4c(c3)CCc3n[nH]cc3-4)C2=O)c1 [Example 9, (R)-1-(4,5-dihydro-2H-benzo[e]indazol-7-yl)-3-((3-methoxyphenyl)amino)pyrrolidin-2-one] was run?
A: < 0.01 µM

Q: With COc1cccc(CN2CCN(c3ccc4c(c3)OCc3n[nH]cc3-4)C2=O)c1 [Example 14, 1-(2,4-dihydrochromeno[3,4-c]pyrazol-7-yl)-3-(3-methoxybenzyl)imidazolidin-2-one] as the molecule, how does the IC50 read?
A: < 0.01 µM

Q: Which IC50 does the source give for COc1cccc(CN2CCN(c3ccc4c(n3)OCc3n[nH]cc3-4)C2=O)c1 [Example 15, 1-(2,4-dihydropyrazolo[4′,3′:4,5]pyrano[2,3-b]pyridin-7-yl)-3-(3-methoxybenzyl)imidazolidin-2-one] here?
A: < 0.01 µM

Q: With COc1cc(F)cc(CN2CCN(c3ccc4c(n3)OCc3n[nH]cc3-4)C2=O)c1 [Example 18, 1-(2,4-dihydropyrazolo[4′,3′:4,5]pyrano[2,3-b]pyridin-7-yl)-3-(3-fluoro-5-methoxybenzyl)imidazolidin-2-one] as the molecule, how does the IC50 read?
A: 0.01 to 0.1 µM

Q: For COc1cccc(CN2CCN(c3ccc4c(c3)CCc3n[nH]c(C)c3-4)C2=O)c1 [Example 19, 1-(3-methoxybenzyl)-3-(1-methyl-4,5-dihydro-2H-benzo[e]indazol-7-yl)imidazolidin-2-one], which IC50 is on record?
A: 0.01 to 0.1 µM

Q: Which IC50 does the source give for Cc1ccc(F)c(CN2CCN(c3ccc4c(n3)OCc3n[nH]cc3-4)C2=O)c1 [Example 20, 1-(2,4-dihydropyrazolo[4′,3′:4,5]pyrano[2,3-b]pyridin-7-yl)-3-(2-fluoro-5-methylbenzyl)imidazolidin-2-one] here?
A: 0.01 to 0.1 µM

Q: With O=C1N(Cc2cc(F)cc(F)c2)CCN1c1ccc2c(n1)OCc1n[nH]cc1-2 [Example 21, 1-(3,5-difluorobenzyl)-3-(2,4-dihydropyrazolo[4′,3′:4,5]pyrano[2,3-b]pyridin-7-yl)imidazolidin-2-one] as the molecule, how does the IC50 read?
A: 0.01 to 0.1 µM

Q: For Cc1c(F)cccc1CN1CCN(c2ccc3c(n2)OCc2n[nH]cc2-3)C1=O [Example 22, 1-(2,4-dihydropyrazolo[4′,3′:4,5]pyrano[2,3-b]pyridin-7-yl)-3-(3-fluoro-2-methylbenzyl)imidazolidin-2-one], which IC50 is on record?
A: 0.01 to 0.1 µM

Q: How did the IC50 turn out when NC(=O)c1cccc(CN2CCN(c3ccc4c(n3)OCc3n[nH]cc3-4)C2=O)c1 [Example 23, ((3-(2,4-dihydropyrazolo[4′,3′:4,5]pyrano[2,3-b]pyridin-7-yl)-2-oxoimidazolidin-1-yl)methyl)benzamide] was run?
A: 0.01 to 0.1 µM

Q: For Cc1c(F)cccc1NC1CCN(c2ccc3c(n2)OCc2n[nH]cc2-3)C1=O (stereo not shown) [Example 24, 1-(2,4-dihydropyrazolo[4′,3′:4,5]pyrano[2,3-b]pyridin-7-yl)-3-((3-fluoro-2-methylphenyl)amino)pyrrolidin-2-one], which IC50 is on record?
A: 0.1 to 0.5 µM

Q: With O=C1N(Cc2cccc(F)c2)CCN1c1ccc2c(n1)OCc1n[nH]cc1-2 [Example 25, 1-(2,4-dihydropyrazolo[4′,3′:4,5]pyrano[2,3-b]pyridin-7-yl)-3-(3-fluorobenzyl)imidazolidin-2-one] as the molecule, how does the IC50 read?
A: 0.1 to 0.5 µM

Q: With Cc1cc(CN2CCN(c3ccc4c(n3)OCc3n[nH]cc3-4)C2=O)ccc1F [Example 26, 1-(2,4-dihydropyrazolo[4′,3′:4,5]pyrano[2,3-b]pyridin-7-yl)-3-(4-fluoro-3-methylbenzyl)imidazolidin-2-one] as the molecule, how does the IC50 read?
A: 0.1 to 0.5 µM

Q: For COc1cccc(CN2CCN(c3ccc4c(n3)OCc3n[nH]cc3-4)C2=O)c1F [Example 27, 1-(2,4-dihydropyrazolo[4′,3′:4,5]pyrano[2,3-b]pyridin-7-yl)-3-(2-fluoro-3-methoxybenzyl)imidazolidin-2-one], which IC50 is on record?
A: 0.1 to 0.5 µM

Q: For Cc1cc(F)ccc1CN1CCN(c2ccc3c(n2)OCc2n[nH]cc2-3)C1=O [Example 28, 1-(2,4-dihydropyrazolo[4′,3′:4,5]pyrano[2,3-b]pyridin-7-yl)-3-(4-fluoro-2-methylbenzyl)imidazolidin-2-one], which IC50 is on record?
A: 0.1 to 0.5 µM

Q: For O=C1N(Cc2ccc(F)c(F)c2)CCN1c1ccc2c(n1)OCc1n[nH]cc1-2 [Example 29, 1-(3,4-difluorobenzyl)-3-(2,4-dihydropyrazolo[4′,3′:4,5]pyrano[2,3-b]pyridin-7-yl)imidazolidin-2-one], which IC50 is on record?
A: 0.1 to 0.5 µM

Q: Which IC50 does the source give for O=C1N(Cc2cc(F)ccc2F)CCN1c1ccc2c(n1)OCc1n[nH]cc1-2 [Example 30, 1-(2,5-difluorobenzyl)-3-(2,4-dihydropyrazolo[4′,3′:4,5]pyrano[2,3-b]pyridin-7-yl)imidazolidin-2-one] here?
A: 0.1 to 0.5 µM

Q: How did the IC50 turn out when CC(C)(C)c1cccc(CN2CCN(c3ccc4c(n3)OCc3n[nH]cc3-4)C2=O)c1 [Example 31, 1-(3-(tert-butyl)benzyl)-3-(2,4-dihydropyrazolo[4′,3′:4,5]pyrano[2,3-b]pyridin-7-yl)imidazolidin-2-one] was run?
A: 0.5 to 2 µM

Q: For O=C1N(Cc2c(F)cccc2F)CCN1c1ccc2c(n1)OCc1n[nH]cc1-2 [Example 33, 1-(2,6-difluorobenzyl)-3-(2,4-dihydropyrazolo[4′,3′:4,5]pyrano[2,3-b]pyridin-7-yl)imidazolidin-2-one], which IC50 is on record?
A: 0.5 to 2 µM
